Key:
human mAChR M1 [1] = target: T1, human mAChR M1 (Homo sapiens, UniProt P11229); assay: mAChR M1 cell-based functional assay (calcium mobilization), PAM mode: increase in the EC20 acetylcholine response
T1 sequence (P11229 1-460): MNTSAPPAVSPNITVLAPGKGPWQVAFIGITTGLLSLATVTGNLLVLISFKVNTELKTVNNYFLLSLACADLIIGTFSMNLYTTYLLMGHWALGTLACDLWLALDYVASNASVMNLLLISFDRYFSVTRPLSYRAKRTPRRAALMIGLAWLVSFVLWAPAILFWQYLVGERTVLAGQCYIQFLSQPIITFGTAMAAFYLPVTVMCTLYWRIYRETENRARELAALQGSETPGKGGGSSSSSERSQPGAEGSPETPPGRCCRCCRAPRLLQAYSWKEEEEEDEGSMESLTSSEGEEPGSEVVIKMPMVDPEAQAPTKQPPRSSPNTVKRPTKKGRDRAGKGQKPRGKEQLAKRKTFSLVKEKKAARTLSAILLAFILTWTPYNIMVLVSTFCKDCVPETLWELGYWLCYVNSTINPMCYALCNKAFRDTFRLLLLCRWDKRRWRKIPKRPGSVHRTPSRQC
Excerpt: (§1) Chinese hamster ovary (CHO-K1) cells stably expressing rat (r)M1 were purchased from the American Type Culture Collection and cultured according to their indicated protocol. CHO cells stably expressing human (h)M2, hM3, and hM5 were described previously (Levey, et al., 1991); hM1 and hM4 cDNAs were purchased from Missouri S&T cDNA Resource; rM4 cDNA was provided by T. I. Bonner (National Institutes of Health, Bethesda, MD). rM2 and rM3 were cloned from a rat brain cDNA library and sequence verified. hM1, rM2, rM3, hM4, and rM4 cDNAs were used to stably transfect CHO-K1 cells purchased from the American Type Culture Collection using Lipofectamine2000. To make stable rM2, hM2, rM3, hM4, and rM4 cell lines for use in calcium mobilization assays, these cells also were stably transfected with a chimeric G-protein (Gqi5) (provided by B. R. Conklin, University of California, San Francisco) using Lipofectamine 2000. rM1, hM1, rM3, hM3, rM5, and hM5 cells were grown in Ham's F-12 medium containing 10% heat-inactivated fetal bovine serum (FBS), 20 mM HEPES, and 50 μg/mL G418 sulfate. rM2-Gqi5, hM2-Gqi5, and hM4-Gqi5 cells were grown in the same medium also containing 500 μg/mL Hygromycin B. Stable rM4-Gqi5 cells were grown in DMEM containing 10% heat-inactivated FBS, 20 mM HEPES, 400 μg/mL G418 sulfate, and 500 μg/mL Hygromycin B.
(§2) For high throughput measurement of agonist-evoked increases in intracellular calcium, CHO-K1 cells stably expressing muscarinic receptors were plated in growth medium lacking G418 and hygromycin at 15,000 cells/20 μL/well in Greiner 384-well black-walled, tissue culture (TC)-treated, clear-bottom plates (VWR). Cells were incubated overnight at 37° C. and 5% C02. The next day, cells were washed using an ELX 405 (BioTek) with four washes (80 μL) of assay buffer then aspirated to 20 μL. Next, 20 μL of 16 μM Fluo-4/acetoxymethyl ester (Invitrogen, Carlsbad, CA) prepared as a 2.3 mM stock in DMSO and mixed in a 1:1 ratio with 10% (w/v) Pluronic F-127 and diluted in assay buffer was added to the wells and the cell plates were incubated for 50 min at 37° C. and 5% C02. Dye was removed by washing with the ELX 405 (four 80 μL washes of assay buffer) then aspirated to 20 μL. Compound master plates were formatted in an 11 point CRC format (1:3 dilutions) in 100% DMSO with a starting concentration of 10 mM using the BRAVO liquid handler (Agilent). Test compound CRCs were then transferred to daughter plates (240 nL) using the Echo acoustic plate reformatter (Labcyte, Sunnyvale, CA) and then diluted into assay buffer (40 μL) to a 2× stock using a Thermo Fisher Combi (Thermo Fisher Scientific, Waltham, MA).
Calcium flux was measured using the Functional Drug Screening System (FDSS) 6000 (Hamamatsu Corporation, Tokyo, Japan) as an increase in the fluorescent static ratio. Compounds were applied to cells (20 μL, 2×) using the automated system of the FDSS 6000 at 4 s into the 300 s protocol and the data were collected at 1 Hz. At 144 s into the 300 s protocol, 10 μL of an EC20 concentration of the muscarinic receptor agonist acetylcholine was added (5×), followed by the addition of 12 μL of an EC80 concentration of acetylcholine at the 230 s time point (5×). Agonist activity was analyzed as a concentration-dependent increase in calcium mobilization upon compound addition. Emax values for agonist activity are expressed relative to the maximum for acetylcholine. Positive allosteric modulator activity was analyzed as a concentration-dependent increase in the EC20 acetylcholine response. Antagonist activity was analyzed as a concentration-dependent decrease in the EC80 acetylcholine response. Concentration-response curves were generated using a four-parameter logistical equation in XLfit curve fitting software (IDBS, Bridgewater, NJ) for Excel (Microsoft, Redmond, WA) or Prism (GraphPad Software, Inc., San Diego, CA). […]

human mAChR M1 [2] = target: T1, human mAChR M1; assay: mAChR M1 cell-based functional assay (calcium mobilization), agonist mode: compound alone, Emax relative to acetylcholine maximum; details: for EC50 / Agonist Activity Human M1 EC50: human mAChR M1; for Emax: relative to the maximum for acetylcholine
Excerpt: as §1, §2
Calcium flux was measured using the Functional Drug Screening System (FDSS) 6000 (Hamamatsu Corporation, Tokyo, Japan) as an increase in the fluorescent static ratio. Compounds were applied to cells (20 μL, 2×) using the automated system of the FDSS 6000 at 4 s into the 300 s protocol and the data were collected at 1 Hz. At 144 s into the 300 s protocol, 10 μL of an EC20 concentration of the muscarinic receptor agonist acetylcholine was added (5×), followed by the addition of 12 μL of an EC80 concentration of acetylcholine at the 230 s time point (5×). Agonist activity was analyzed as a concentration-dependent increase in calcium mobilization upon compound addition. Emax values for agonist activity are expressed relative to the maximum for acetylcholine. Positive allosteric modulator activity was analyzed as a concentration-dependent increase in the EC20 acetylcholine response. Antagonist activity was analyzed as a concentration-dependent decrease in the EC80 acetylcholine response. Concentration-response curves were generated using a four-parameter logistical equation in XLfit curve fitting software (IDBS, Bridgewater, NJ) for Excel (Microsoft, Redmond, WA) or Prism (GraphPad Software, Inc., San Diego, CA).

SMILES	EC50 (human mAChR M1 [1])	Emax (human mAChR M1 [1])	EC50 (human mAChR M1 [2])	Emax (human mAChR M1 [2])	Agonist Activity Human M1 EC50 (human mAChR M1 [2])
[2H]C1([2H])c2ncccc2C(=O)N1Cc1ccc(-c2ccc(C)c3nn(C)cc23)cc1C [Compound 30, 6-(4-(2,7-dimethyl-2H-indazol-4-yl)-2-methylbenzyl)-6,7-dihydro-5H-pyrrolo[3,4-b]pyridin-5-one-7,7-d2]	1090 nM	79%	> 10000 nM	22%	–
[2H]C1([2H])c2ncccc2C(=O)N1Cc1ccc(-c2cnc3nn(C)cc3c2)cc1C [Compound 34, 6-(2-methyl-4-(2-methyl-2H-pyrazolo[3,4-b]pyridin-5-yl)benzyl)-6,7-dihydro-5H-pyrrolo[3,4-b]pyridin-5-one-7,7-d2]	2000 nM	82%	> 10000 nM	3%	–
[2H]C1([2H])c2ncccc2C(=O)N1Cc1c(F)cc(-c2cccc3c2cnn3C)cc1F [Compound 35, 6-(2,6-difluoro-4-(1-methyl-1H-indazol-4-yl)benzyl)-6,7-dihydro-5H-pyrrolo[3,4-b]pyridin-5-one-7,7-d^2]	2420 nM	63%	> 10000 nM	2%	–
[2H]C1([2H])c2ncccc2C(=O)N1Cc1c(F)cc(-c2c(F)ccc3nn(C)cc23)cc1F [Compound 37, 6-(2,6-difluoro-4-(5-fluoro-2-methyl-2H-indazol-4-yl)benzyl)-6,7-dihydro-5H-pyrrolo[3,4-b]pyridin-5-one-7,7-d2]	2300 nM	64%	–	3%	Inactive
[2H]C1([2H])c2ncccc2C(=O)N1Cc1c(F)cc(-c2ccc(C(F)(F)F)c3nn(C)cc23)cc1F [Compound 41, 6-(2,6-difluoro-4-(2-methyl-7-(trifluoromethyl)-2H-indazol-4-yl)benzyl)-6,7-dihydro-5H-pyrrolo[3,4-b]pyridin-5-one-7,7-d2]	604 nM	65%	–	2%	Inactive
[2H]C1([2H])c2ncccc2C(=O)N1Cc1c(F)cc(-c2cccc3nn(C(C)C)cc23)cc1F [Compound 43, 6-(2,6-difluoro-4-(2-isopropyl-2H-indazol-4-yl)benzyl)-6,7-dihydro-5H-pyrrolo[3,4-b]pyridin-5-one-7,7-d2]	1170 nM	86%	> 10000 nM	2%	–

More lines, in order of falling EC50 (human mAChR M1 [1]), values ahead:

EC50 (human mAChR M1 [1])	Emax (human mAChR M1 [1])	EC50 (human mAChR M1 [2])	Emax (human mAChR M1 [2])	Agonist Activity Human M1 EC50 (human mAChR M1 [2])	SMILES
594 nM	86%	5460 nM	16%	–	[2H]C1([2H])c2ncccc2C(=O)N1Cc1c(F)cc(-c2cc(C)cc3nn(C)cc23)cc1F [Compound 32, 6-(4-(2,6-dimethyl-2H-indazol-4-yl)-2,6-difluorobenzyl)-6,7-dihydro-5H-pyrrolo[3,4-b]pyridin-5-one-7,7-d^2]
476 nM	84%	–	5%	Inactive	[2H]C1([2H])c2ncccc2C(=O)N1Cc1c(F)cc(-c2ccc(F)c3nn(C)cc23)cc1F [Compound 36, 6-(2,6-difluoro-4-(7-fluoro-2-methyl-2H-indazol-4-yl)benzyl)-6,7-dihydro-5H-pyrrolo[3,4-b]pyridin-5-one-7,7-d2]
436 nM	69%	> 10000 nM	2%	–	[2H]C1([2H])c2ncccc2C(=O)N1Cc1c(F)cc(-c2ccc(OC)c3n[nH]cc23)cc1F [Compound 38, 6-(2,6-difluoro-4-(7-methoxy-2H-indazol-4-yl)benzyl)-6,7-dihydro-5H-pyrrolo[3,4-b]pyridin-5-one-7,7-d2]
413 nM	78%	> 10000 nM	28%	–	[2H]C1([2H])c2ncccc2C(=O)N1Cc1c(F)cc(-c2cccc3nn(CF)cc23)cc1F [Compound 44, 6-(2,6-difluoro-4-(2-(fluoromethyl)-2H-indazol-4-yl)benzyl)-6,7-dihydro-5H-pyrrolo[3,4-b]pyridin-5-one-7,7-d2]
392 nM	72%	> 10000 nM	2%	–	[2H]C1([2H])c2ncccc2C(=O)N1Cc1ccc(-c2ccc3nn(C)cc3c2)cc1C [Compound 33, 6-(2-methyl-4-(2-methyl-2H-indazol-5-yl)benzyl)-6,7-dihydro-5H-pyrrolo[3,4-b]pyridin-5-one-7,7-d2]
371 nM	81%	> 10000 nM	13%	–	[2H]C1([2H])c2ncccc2C(=O)N1Cc1c(F)cc(-c2cccc3nn(CC)cc23)cc1F [Compound 42, 6-(4-(2-ethyl-2H-indazol-4-yl)-2,6-difluorobenzyl)-6,7-dihydro-5H-pyrrolo[3,4-b]pyridin-5-one-7,7-d2]
263 nM	84%	8600 nM	28%	–	[2H]C1([2H])c2ncccc2C(=O)N1Cc1c(F)cc(-c2cccc3nn(C([2H])([2H])[2H])cc23)cc1F [Compound 31, 6-(2,6-Difluoro-4-(2-(methyl-d3)-2H-indazol-4-yl)benzyl)-6,7-dihydro-5H-pyrrolo[3,4-b]pyridin-5-one-7,7-d2]
233 nM	66%	–	1%	Inactive	[2H]C1([2H])c2ncccc2C(=O)N1Cc1c(F)cc(-c2ccc(Cl)c3nn(C)cc23)cc1F [Compound 40, 6-(4-(7-chloro-2-methyl-2H-indazol-4-yl)-2,6-difluorobenzyl)-6,7-dihydro-5H-pyrrolo[3,4-b]pyridin-5-one-7,7-d2]
112 nM	85%	–	9%	Inactive	[2H]C1([2H])c2ncccc2C(=O)N1Cc1c(F)cc(-c2ccc(OC)c3nn(C)cc23)cc1F [Compound 39, 6-(2,6-difluoro-4-(7-methoxy-2-methyl-2H-indazol-4-yl)benzyl)-6,7-dihydro-5H-pyrrolo[3,4-b]pyridin-5-one-7,7-d2]
